In PubChem BioAssay (NCI):
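Results reflect a 48-hour exposure of cells in 96-well plates to compound at five concentrations. TGI: total growth inhibition.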

Legend:
Assay in all cases: DTP human tumour cell line panel, 48 h
[1] = system: SK-MEL-28 melanoma
[2] = system: UACC-257 melanoma
[3] = system: MDA-MB-435
[4] = system: SF-268 CNS
[5] = system: SK-MEL-2 melanoma
[6] = system: RXF 393 renal
[7] = system: SK-OV-3 ovarian
[8] = system: SR leukemia
[9] = system: SW-620 colon
[10] = system: HT29 colon
[11] = system: SK-MEL-5 melanoma
[12] = system: SNB-19 CNS
[13] = system: HCT-15 colon
[14] = system: SF-539 CNS
[15] = system: T-47D breast
[16] = system: A498 renal
[17] = system: PC-3 prostate
[18] = system: BT-549 breast
[19] = system: SN12C renal
[20] = system: NCI-H23 lung
[21] = system: M14 melanoma
[22] = system: OVCAR-5 ovarian
[23] = system: HL-60(TB) leukemia
[24] = system: IGROV1 ovarian
[25] = system: HCT-116 colon
[26] = system: K-562 leukemia
[27] = system: HCC-2998 colon
[28] = system: 786-0 renal
[29] = system: CAKI-1 renal
[30] = system: EKVX NSCLC
[31] = system: NCI/ADR-RES ovarian
[32] = system: UO-31 renal
[33] = system: MDA-N
[34] = system: SNB-75 CNS
[35] = system: MOLT-4 leukemia
[36] = system: ACHN renal
[37] = system: COLO 205 colon
[38] = system: U251 CNS
[39] = system: TK-10 renal
[40] = system: OVCAR-8 ovarian
[41] = system: RPMI-8226 leukemia
[42] = system: HS 578T breast
[43] = system: A549 NSCLC
[44] = system: LOX IMVI melanoma
[45] = system: CCRF-CEM leukemia
[46] = system: NCI-H460 lung
[47] = system: UACC-62 melanoma
[48] = system: NCI-H522 lung
[49] = system: DU-145 prostate
[50] = system: MDA-MB-231 breast
[51] = system: KM12 colon
[52] = system: OVCAR-3 ovarian
[53] = system: SF-295 CNS
[54] = system: HOP-62 NSCLC
[55] = system: NCI-H226 lung
[56] = system: OVCAR-4 ovarian
[57] = system: MALME-3M melanoma
[58] = system: MCF7 breast

CCC1(COC(NC(=O)c2ccccc2)(C(F)(F)F)C(F)(F)F)COC1
TGI [1]: > 100 µM
TGI [2]: > 100 µM
TGI [3]: > 100 µM
TGI [4]: > 100 µM
TGI [5]: > 100 µM
TGI [6]: > 100 µM
TGI [7]: > 100 µM
TGI [8]: > 100 µM
TGI [9]: > 100 µM
TGI [10]: > 100 µM
TGI [11]: > 100 µM
TGI [12]: > 100 µM
TGI [13]: > 100 µM
TGI [14]: > 100 µM
TGI [15]: > 100 µM
TGI [16]: > 100 µM
TGI [17]: > 100 µM
TGI [18]: > 100 µM
TGI [19]: > 100 µM
TGI [20]: > 100 µM
TGI [21]: > 100 µM
TGI [22]: > 100 µM
TGI [23]: > 100 µM
TGI [24]: > 100 µM
TGI [25]: > 100 µM
TGI [26]: > 100 µM
TGI [27]: > 100 µM
TGI [28]: > 100 µM
TGI [29]: > 100 µM
TGI [30]: > 100 µM
TGI [31]: > 100 µM
TGI [32]: > 100 µM
TGI [33]: > 100 µM
TGI [34]: > 100 µM
TGI [35]: > 100 µM
TGI [36]: > 100 µM
TGI [37]: > 100 µM
TGI [38]: > 100 µM
TGI [39]: > 100 µM
TGI [40]: > 100 µM
TGI [41]: > 100 µM
TGI [42]: > 100 µM
TGI [43]: > 100 µM
TGI [44]: > 100 µM
TGI [45]: > 100 µM

COc1cccc(N2C(=O)C3c4[nH]c5ccc(C)cc5c4C4CCC(C(C)(C)C)CC4C3C2=O)c1 (stereo not given)
TGI [1]: > 10 µM
TGI [3]: > 10 µM
TGI [4]: > 10 µM
TGI [46]: 4.43 µM
TGI [47]: > 10 µM
TGI [5]: > 10 µM
TGI [6]: 9.94 µM
TGI [48]: 5.66 µM
TGI [7]: > 10 µM
TGI [8]: 4.03 µM
TGI [49]: > 10 µM
TGI [9]: > 10 µM
TGI [10]: > 10 µM
TGI [50]: > 10 µM
TGI [51]: > 10 µM
TGI [11]: > 10 µM
TGI [12]: > 10 µM
TGI [13]: > 10 µM
TGI [14]: 7.41 µM
TGI [15]: > 10 µM
TGI [16]: > 10 µM
TGI [17]: > 10 µM
TGI [19]: > 10 µM
TGI [20]: 5.74 µM
TGI [21]: > 10 µM
TGI [52]: > 10 µM
TGI [22]: 7.81 µM
TGI [23]: 4.21 µM
TGI [24]: > 10 µM
TGI [25]: 4.75 µM
TGI [26]: 7.67 µM
TGI [27]: > 10 µM
TGI [53]: > 10 µM
TGI [29]: > 10 µM
TGI [30]: > 10 µM
TGI [31]: 9.27 µM
TGI [32]: > 10 µM
TGI [54]: > 10 µM
TGI [33]: > 10 µM
TGI [34]: 7.36 µM
TGI [35]: 5.04 µM
TGI [55]: 8.78 µM
TGI [56]: > 10 µM
TGI [36]: > 10 µM
TGI [37]: > 10 µM
TGI [38]: > 10 µM
TGI [39]: > 10 µM
TGI [40]: 5.85 µM
TGI [41]: > 10 µM
TGI [57]: > 10 µM
TGI [42]: > 10 µM
TGI [43]: > 10 µM
TGI [58]: > 10 µM
TGI [44]: 3.98 µM
TGI [45]: 7.57 µM
